What follows are compounds tested against T1, PTP1B (Homo sapiens, UniProt P18031) (assay: Measurement of PTP1B Inhibitory Activity (dephosphorylation of p-nitrophenylphosphate, absorbance at 405 nm)). Conditions: PTP1B enzyme active domain (1-321 amino acid, 6 histidine residues at C-terminal), pNPP substrate, pH 6.5, 37° C. for 1 hour.
T1 construct: in order to express 1-321 amino acid region encoding enzyme active domain of PTP1B; made in house; host or cells: E. coli BL21 DE3 pLysS
T1 sequence (P18031 1-321): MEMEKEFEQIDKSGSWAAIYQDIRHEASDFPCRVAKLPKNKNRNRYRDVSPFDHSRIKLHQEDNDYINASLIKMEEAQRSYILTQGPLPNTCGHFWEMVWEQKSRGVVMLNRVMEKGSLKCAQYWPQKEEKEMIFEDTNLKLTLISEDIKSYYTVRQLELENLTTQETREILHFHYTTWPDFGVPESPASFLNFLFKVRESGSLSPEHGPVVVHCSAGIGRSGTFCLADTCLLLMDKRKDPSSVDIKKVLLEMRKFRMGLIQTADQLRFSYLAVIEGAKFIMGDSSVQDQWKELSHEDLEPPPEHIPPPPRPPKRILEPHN
Format: biochemical
Protocol: Based on the sequence of human PTP-1B registered in Genbank (M31724) database, primer 1 and primer 2 were synthesized, and PTP1B cDNA was amplified from human skeletal muscle cDNA library (Clonetech, Inc. HL5002a) according to PCR method using these primers. The cycle of reactions at 98° C. for 10 seconds, at 58° C. for 30 seconds and at 72° C. for 90 seconds was repeated 35 cycles. The PCR reaction product (1322 bp) was cloned to pT7 Blue-T vector (Novagen, Inc.) to identify the base sequence.
Human PTP 1B cDNA (1322 bp) (100 ng) was amplified with primer 3 and primer 4 in order to express 1-321 amino acid region encoding enzyme active domain of PTP1B. The PCR reaction product (976 bp) was cloned to pT7 Blue-T vector (Novagen, Inc.) to identify the base sequence.
The pT7 Blue-T vector-human PTP1B cDNA (976 bp) was cleaved with restriction enzymes NdeI and SalI (Takara Shuzo Co., Ltd.) and subjected to electrophoresis using 0.7% agarose gel, and a 969 bp fragment was excised and purified. The fragment was introduced into pET32a (+) vector (Novagen, Inc.) cleaved with restriction enzymes NdeI and XhoI (Takara Shuzo Co., Ltd.), to constitute a vector pET32a (+)-human PTP1B cDNA (969 bp), which expresses PTP1B (321 amino acid) with 6 histidine residues binded to a C-terminal thereof under a control of T7 lac promotor.
E.coli BL21 DE3 pLysS (Novagen, Inc.) was transformed with the pET32a (+)-human PTP 1B cDNA (969 bp) to give an ampicillin (50 μg/ml) resistant bacterium. This was shake cultured at 37° C. using 5L of 2xYT medium (ampicillin (50 μg/ml)). When OD600nm reached to 0.5, IPTG (Isopropyl b-D-Thiogalactoside) was added to the culture medium so as to be 1 mM in order to induce the expression of protein, and this medium was further cultured at 37° C. overnight. The bacterium was collected by centrifugation (8000 rpm, 10 minutes, 4° C.).
The bacterium was suspended in lysis buffer (50 ml) (20 mM Tris HCl (pH 8.0), 0.5 M NaCl, 1 mM PMSF, 5 mM benzamidine, Lysozyme 5 mg) and crushed by sonication. To the supernatant after centrifuging (12000 rpm, 10 minutes, 4° C.) was added imidazole so as to be 50 mM and the mixture was mixed with His Bind resin (Novagen, Inc.) binded with Ni ion (4° C., overnight). The mixture was washed with 200 ml of (20 mM Tris HCl (pH 8.0), 0.5 M NaCl, 1 mM PMSF, 5 mM benzamidine, 50 mM imidazole), eluted with (20 mM Tris HCl (pH 8.0), 0.5 M NaCl, 1 mM PMSF, 5 mM benzamidine, 400 mM imidazole) and concentrated by centrifugation using Ultrafree-15 Biomax-50 (MILLIPORE Corp.) (11 mg/ml, 4ml). The purified protein (PTP1B) was identified by Western blotting method using SDS-PAGE, coomassie Blue stain and anti-PTP1B antibody (UBI Inc.).
The PTP1B inhibitory activity of the test compound was evaluated by measuring the ability of the test compound to dephosphorylate p-nitrophenylphosphate (pNPP) (a change of the absorbance at 405 nm).
To a buffer for measurement of the activity (0.1 M sodium acetate (pH 6.5), 1 mM EDTA, 10 mM DTT) (10 ml) was added PTP1B enzyme solution (2 μl) and the mixture was added to each well of a 96-well microtiter plate (100 μl each). A solution of the test compound in DMSO (10 μl) and 2 mM pNPP/the buffer for measurement of the activity (90 μl) were then added to each well, and the absorbance at 405 nm was measured. After keeping at 37° C. for 1 hour, the absorbance was measured again to evaluate a change of the absorbance. Regarding the change of the absorbance in the absence of the test compound as 100%, the concentration of the compound necessary for 50% inhibition (IC50 value) was calculated.

Row | SMILES | IC50
1 | O=C(O)[C@@H](Cc1ccccc1)Oc1ccc(-c2cccn2-c2ccc(Br)cc2)cc1 [Example 2, (2R)-2-{4-[1-(4-Bromophenyl)-1H-pyrrol-2-yl]phenoxy}-3-phenylpropanoic acid] | 890 nM
2 | Cc1ccc(-c2ccc(/C=C/C(=O)O)cc2)n1-c1ccc(/C=C/C(=O)O)cc1 [Example 4, (2E)-3-[4-(1-{4-[(1E)-2-Carboxyethenyl]phenyl}-5-methyl-1H-pyrrol-2-yl)phenyl]-2-propenoic acid] | 6480 nM
3 | Cc1ccc(-c2ccc(O[C@H](Cc3ccccc3)C(=O)O)cc2)n1-c1ccc(Br)cc1 [Example 6, (2R)-2-{4-[1-(4-Bromophenyl)-5-methyl-1H-pyrrol-2-yl]phenoxy}-3-phenylpropanoic acid] | 500 nM
4 | Cc1ccc(-c2cc(Br)c(O[C@H](Cc3ccccc3)C(=O)O)c(Br)c2)n1-c1ccc(Br)cc1 [Example 8, (2R)-2-{2,6-Dibromo-4-[1-(4-bromophenyl)-5-methyl-1H-pyrrol-2-yl]phenoxy}-3-phenylpropanoic acid] | 380 nM
5 | Cc1ccc(-c2ccc(-c3ccc(O[C@H](Cc4ccccc4)C(=O)O)cc3)cc2)n1-c1ccc(Br)cc1 [Example 10, (2R)-2-({4′-[1-(4-Bromophenyl)-5-methyl-1H-pyrrol-2-yl][1,1′-biphenyl]-4-yl}oxy)-3-phenylpropanoic acid] | 340 nM
6 | O=C(O)CCc1ccc(-c2cccn2-c2ccc(CCC(=O)O)cc2)cc1 [Example 14, 3-(4-{1-[4-(2-Carboxyethyl)phenyl]-1H-pyrrol-2-yl}phenyl)propanoic acid] | 5870 nM
7 | O=C(O)[C@@H](Cc1ccccc1)Oc1ccc(-c2cccn2-c2ccc(O[C@H](Cc3ccccc3)C(=O)O)cc2)cc1 [Example 16, (2R)-2-{4-[1-(4-{[(1R)-1-Carboxy-2-phenylethyl]oxy}phenyl)-1H-pyrrol-2-yl]phenoxy}-3-phenylpropanoic acid] | 410 nM
8 | O=C(O)[C@@H](Cc1ccccc1)Oc1ccc(-n2cccc2-c2ccc(Br)cc2)cc1 [Example 18, (2R)-2-{4-[2-(4-bromophenyl)-1H-pyrrol-1-yl]phenoxy}-3-phenylpropanoic acid] | 1010 nM
9 | CCc1ccc(-c2ccc(O[C@H](Cc3ccccc3)C(=O)O)cc2)n1-c1ccc(Br)cc1 [Example 20, (2R)-2-{4-[1-(4-bromophenyl)-5-ethyl-1H-pyrrol-2-yl]phenoxy}-3-phenylpropanoic acid] | 530 nM
10 | O=C(O)[C@@H](Cc1ccccc1)Oc1ccc(-c2ccc(-c3ccccc3)n2-c2ccc(Br)cc2)cc1 [Example 22, (2R)-2-{4-[1-(4-Bromophenyl)-5-phenyl-1H-pyrrol-2-yl]phenoxy}-3-phenylpropanoic acid] | 710 nM
11 | Cc1cc(-c2ccc(O[C@H](Cc3ccccc3)C(=O)O)cc2)n(-c2ccc(Br)cc2)c1C [Example 24, (2R)-2-{4-[1-(4-Bromophenyl)-4,5-dimethyl-1H-pyrrol-2-yl]phenoxy}-3-phenylpropanoic acid] | 320 nM
12 | Cc1cc(C)n(-c2ccc(Br)cc2)c1-c1ccc(O[C@H](Cc2ccccc2)C(=O)O)cc1 [Example 26, (2R)-2-{4-[1-(4-Bromophenyl)-3,5-dimethyl-1H-pyrrol-2-yl]phenoxy}-3-phenylpropanoic acid] | 420 nM
13 | CCCc1cc(C)n(-c2ccc(Br)cc2)c1-c1ccc(O[C@H](Cc2ccccc2)C(=O)O)cc1 [Example 28, (2R)-2-{4-[1-(4-Bromophenyl)-5-methyl-3-propyl-1H-pyrrol-2-yl]phenoxy}-3-phenylpropanoic acid] | 480 nM
14 | Cc1cc(-c2ccccc2)c(-c2ccc(O[C@H](Cc3ccccc3)C(=O)O)cc2)n1-c1ccc(Br)cc1 [Example 30, (2R)-2-{4-[1-(4-Bromophenyl)-5-methyl-3-phenyl-1H-pyrrol-2-yl]phenoxy}-3-phenylpropanoic acid] | 720 nM
15 | Cc1ccc(-c2ccc(O[C@H](Cc3c[nH]c4ccccc34)C(=O)O)cc2)n1-c1ccc(Br)cc1 [Example 32, (2R)-2-{4-[1-(4-Bromophenyl)-5-methyl-1H-pyrrol-2-yl]phenoxy}-3-(1H-indol-3-yl)propanoic acid] | 2100 nM
16 | CCCc1ccc(-c2ccc(O[C@H](Cc3ccccc3)C(=O)O)cc2)n1-c1ccc(Br)cc1 [Example 34, (2R)-2-{4-[1-(4-Bromophenyl)-5-propyl-1H-pyrrol-2-yl]phenoxy}-3-phenylpropanoic acid] | 1100 nM
17 | O=C(O)[C@@H](Cc1ccccc1)Oc1ccc(-c2cccn2-c2ccccc2)cc1 [Example 36, (2R)-2-[4-(1-Phenyl-1H-pyrrol-2-yl)phenoxy]-3-phenylpropanoic acid] | 1430 nM
18 | Cc1ccc(-n2cccc2-c2ccc(O[C@H](Cc3ccccc3)C(=O)O)cc2)cc1 [Example 38, (2R)-2-{4-[1-(4-Methylphenyl)-1H-pyrrol-2-yl]phenoxy}-3-phenylpropanoic acid] | 1600 nM
19 | O=C(O)[C@@H](Cc1ccccc1)Oc1ccc(-c2cccn2-c2ccc(Cl)cc2)cc1 [Example 40, (2R)-2-{4-[1-(4-Chlorophenyl)-1H-pyrrol-2-yl]phenoxy}-3-phenylpropanoic acid] | 1200 nM
20 | O=C(O)[C@@H](Cc1ccccc1)Oc1ccc(-c2cccn2-c2ccc(C(F)(F)F)cc2)cc1 [Example 42, (2R)-2-{4-[1-(4-Trifluoromethylphenyl)-1H-pyrrol-2-yl]phenoxy}-3-phenylpropanoic acid] | 4900 nM
21 | Cc1ccc(-c2ccc(O[C@H](Cc3ccccc3)C(=O)O)cc2)n1-c1ccc(Cl)cc1 [Example 44, (2R)-2-{4-[1-(4-chlorophenyl)-5-methyl-1H-pyrrol-2-yl]phenoxy}-3-phenylpropanoic acid] | 330 nM
22 | Cc1ccc(-c2ccc(O[C@H](Cc3ccccc3)C(=O)O)cc2)n1-c1ccc(C(F)(F)F)cc1 [Example 46, (2R)-2-{4-[5-Methyl-1-(4-trifluoromethylphenyl)-1H-pyrrol-2-yl]phenoxy}-3-phenylpropanoic acid] | 400 nM
23 | Cc1ccc(-c2ccc(O[C@H](Cc3ccccc3)C(=O)O)cc2)n1Cc1ccccc1 [Example 48, (2R)-2-[4-(1-Benzyl-5-methyl-1H-pyrrol-2-yl)phenoxy]-3-phenylpropanoic acid] | 360 nM
24 | Cc1ccc(-c2ccc(O[C@@H](Cc3ccccc3)C(=O)O)cc2)n1-c1ccc(Br)cc1 [Example 50, (2S)-2-{4-[1-(4-Bromophenyl)-5-methyl-1H-pyrrol-2-yl]phenoxy}-3-phenylpropanoic acid] | 940 nM
25 | Cc1ccc(-c2ccc(O[C@H](Cc3ccccc3)C(=O)O)cc2)n1CCc1ccc(Br)cc1 [Example 52, (2R)-2-(4-{1-[2-(4-bromophenyl)ethan-1-yl]-5-methyl-1H-pyrrol-2-yl}phenoxy)-3-phenylpropanoic acid] | 310 nM
